Like-named read-outs stand apart in the source and are kept apart here.
Columns and labels:
Format in all cases: in vivo
[1] = system: Pharbitis purpurea (PHBPU); assay: Post-emergence herbicidal action against PHBPU
Outline: (§1)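 Doses of 320 g/ha or lower, suffixes a, b and c marking different dosages, were applied post-emergence at the one-leaf stage in 600 l/ha water with 0.5% additive. Damage was assessed visually after about 3 weeks in the greenhouse.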

[2] = system: Digitaria sanguinalis (DIGSA); assay: Pre-emergence herbicidal action against DIGSA
Outline: (§2)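 Application rates ran to 320 g/ha or lower, with several dosages tested on the same weeds. The compound, as wettable powder or emulsion concentrate, is sprayed pre-emergence onto soil over sown seeds; greenhouse growth follows, and effect is rated visually after roughly 3 weeks.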

[3] = system: Oryza sativa (ORYSA); conditions: crop plant compatibility
Outline: (§3)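 Test crops were treated 2 to 3 weeks after sowing, once they reached one leaf, by spraying compound in water with 0.5% additive at 600 l/ha. Visual scoring compared them with untreated controls roughly 3 weeks on, and appendices a, b and c denote different doses.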

[4] = system: Verconica persica (VERPE); assay: Post-emergence herbicidal action against VERPE
Outline: as §1

[5] = system: Abutilon theophrasti (ABUTH); assay: Post-emergence herbicidal action against ABUTH; conditions: visual rating about 3 weeks after treatment vs untreated controls (100% = plants have died, 0% = like control plants)
Outline: as §1

[6] = system: Oryza sativa (ORYSA); conditions: pre-emergence, crop plant compatibility, in comparison to untreated controls
Outline: (§4)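 Crop injury rated visually in percent against untreated plants roughly 3 weeks after treatment (0% no effect, 100% plants dead). Compounds, as WP or EC with 0.5% additive in 600 l/ha water, were applied to the covering soil right after sowing; greenhouse growth. Suffixes a, b, c denote different dosages.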

[7] = system: Viola tricolor (VIOTR); assay: Pre-emergence herbicidal action against VIOTR
Outline: as §2

[8] = system: Amaranthus retroflexus (AMARE); assay: Pre-emergence herbicidal action against AMARE; conditions: visual scoring after about 3 weeks vs untreated controls
Outline: as §2

[9] = system: Lolium rigidum (LOLRI); assay: Pre-emergence herbicidal action against LOLRI
Outline: as §2

[10] = system: Amaranthus retroflexus (AMARE); assay: Post-emergence herbicidal action against AMARE; conditions: 80 g/ha, visual rating about 3 weeks after treatment vs untreated controls (100% = plants have died, 0% = like control plants)
Outline: as §1

[11] = system: Alopecurus myosuroides (ALOMY); assay: Post-emergence herbicidal action against ALOMY; conditions: visual rating about 3 weeks after treatment vs untreated controls (100% = plants have died, 0% = like control plants)
Outline: as §1

[12] = system: Setaria viridis (SETVI); assay: Pre-emergence herbicidal action against SETVI
Outline: as §2

[13] = system: Alopecurus myosuroides (ALOMY); assay: Pre-emergence herbicidal action against ALOMY; conditions: scored visually after about 3 weeks, 100% = plants have died
Outline: as §2

[14] = system: Verconica persica (VERPE); assay: Pre-emergence herbicidal action against VERPE
Outline: as §2

[15] = system: Echinochloa crus-galli (ECHCG); assay: Pre-emergence herbicidal action against ECHCG; conditions: dosage 320 g/ha
Outline: as §2

[16] = system: Avena fatua (AVEFA); assay: Post-emergence herbicidal action against AVEFA; conditions: visual rating about 3 weeks after treatment
Outline: as §1

[17] = system: Zea mays (ZEAMX)
Outline: as §3

[18] = system: Triticum aestivum (TRZAS); conditions: crop plant compatibility, effect vs untreated controls
Outline: as §3

[19] = system: Matricaria inodora (MATIN); assay: Pre-emergence herbicidal action against MATIN; conditions: dosage 320 g/ha
Outline: as §2

[20] = system: Zea mays (ZEAMX); conditions: pre-emergence, 80 g/ha, crop plant compatibility, in comparison to untreated controls
Outline: as §4

[21] = system: Viola tricolor (VIOTR); assay: Post-emergence herbicidal action against VIOTR
Outline: as §1

[22] = system: Echinochloa crus-galli (ECHCG); assay: Post-emergence herbicidal action against ECHCG
Outline: as §1

[23] = system: Avena fatua (AVEFA); assay: Pre-emergence herbicidal action against AVEFA; conditions: 320 g/ha, visual scoring after about 3 weeks vs untreated controls
Outline: as §2

[24] = system: Polygonum convolvulus (POLCO); assay: Pre-emergence herbicidal action against POLCO
Outline: as §2

[25] = system: Setaria viridis (SETVI); assay: Post-emergence herbicidal action against SETVI
Outline: as §1

[26] = system: Polygonum convolvulus (POLCO); assay: Post-emergence herbicidal action against POLCO; conditions: dosage 80 g/ha
Outline: as §1

[27] = system: Matricaria inodora (MATIN); assay: Post-emergence herbicidal action against MATIN; conditions: dosage 80 g/ha
Outline: as §1

[28] = system: Lolium rigidum (LOLRI); assay: Post-emergence herbicidal action against LOLRI
Outline: as §1

[29] = system: Digitaria sanguinalis (DIGSA); assay: Post-emergence herbicidal action against DIGSA; conditions: visual rating about 3 weeks after treatment
Outline: as §1

[30] = system: Pharbitis purpurea (PHBPU); assay: Pre-emergence herbicidal action against PHBPU
Outline: as §2

[31] = 80 g/ha, visual scoring after about 3 weeks vs untreated controls
[32] = 20 g/ha, effect vs untreated controls
[33] = 80 g/ha, effect in comparison to untreated controls

| Compound | Post-emergence action against PHBPU in % ([1]; dosage 80 g/ha) [%] | Pre-emergence action against DIGSA in % [2, 31] [%] | Pre-emergence action against DIGSA in % ([2]; dosage 320 g/ha) [%] | Post-emergence action against ORYSA in % [3, 32] [%] | Post-emergence action against ORYSA in % [3, 33] [%] | Post-emergence action against VERPE in % ([4]; dosage 80 g/ha) [%] | Pre-emergence action against ORYSA in % ([6]; 80 g/ha) [%] | Pre-emergence action against VIOTR in % ([7]; 320 g/ha, Viola tricolor) [%] | Pre-emergence action against AMARE in % ([8]; 320 g/ha) [%] | Pre-emergence action against LOLRI in % ([9]; dosage 320 g/ha) [%] | Post-emergence action against AMARE in % [10] [%] | Post-emergence action against ALOMY in % ([11]; 80 g/ha) [%] | Pre-emergence action against SETVI in % ([12]; dosage 320 g/ha) [%] | Pre-emergence action against ALOMY ([13]; 320 g/ha) [%] | Pre-emergence action against VERPE in % ([14]; dosage 320 g/ha) [%] | Pre-emergence action against ECHCG in % [15] [%] | Pre-emergence action against MATIN in % [19] [%] | Post-emergence action against ECHCG in % ([22]; dosage 80 g/ha) [%] | Pre-emergence action against AVEFA in % [23] [%] | Pre-emergence action against POLCO in % ([24]; dosage 320 g/ha) [%] | also measured |
| --- | --- | --- | --- | --- | --- | --- | --- | --- | --- | --- | --- | --- | --- | --- | --- | --- | --- | --- | --- | --- | --- |
| CCOC(=O)CN(C)S(=O)(=O)NC(=O)COc1nn(-c2ccccn2)c(-c2ccc(F)nc2)c1Br [Example I-120] | 80 | 100 | 100 | 10 | 20 | 90 | 0 | 80 | 90 | 80 | 80 | 100 | 100 | 80 | 90 | – | – | – | – | – | Post-emergence action against ABUTH in % ([5]; 80 g/ha): 80%; Pre-emergence action against ORYSA in % ([6]; 320 g/ha): 10% |
| CCOC(=O)COc1nn(-c2ncccc2C(F)(F)F)c(-c2cncc(F)c2)c1I [Example I-225] | 80 | – | – | – | 10 | 80 | 20 | 100 | 100 | – | – | – | 80 | 90 | 90 | 80 | 80 | 80 | 90 | 90 | Post-emergence action against PHBPU in % ([1]; dosage 320 g/ha): 80%; Post-emergence action against AVEFA in % ([16]; 320 g/ha): 80%; Post-emergence action against ZEAMX in % ([17]; crop plant compatibility, 80 g/ha, effect vs untreated controls): 20%; Post-emergence action against TRZAS in % ([18]; 80 g/ha): 20%; Post-emergence action against VERPE in % ([4]; 320 g/ha, VERPE): 90%; Post-emergence action against ABUTH in % ([5]; 320 g/ha): 80%; Pre-emergence action against ZEAMX in % [20]: 10%; Pre-emergence action against VIOTR in % ([7]; dosage 80 g/ha): 90%; Post-emergence action against VIOTR in % ([21]; 80 g/ha): 80%; Post-emergence action against VIOTR in % ([21]; 320 g/ha): 80%; Post-emergence action against ECHCG in % ([22]; dosage 320 g/ha): 90%; Post-emergence action against SETVI in % ([25]; dosage 320 g/ha): 80%; Post-emergence action against ALOMY in % ([11]; 320 g/ha): 90%; Pre-emergence action against ALOMY ([13]; 80 g/ha): 80%; Pre-emergence action against VERPE in % ([14]; dosage 80 g/ha): 80% |
| O=C(O)COc1nn(-c2ccccn2)c(-c2ccc(F)nc2)c1C(F)(F)F [Example I-99] | 80 | – | – | 0 | 0 | 80 | 0 | 90 | 90 | 100 | 80 | 90 | 90 | 100 | 90 | – | 90 | – | 90 | 90 | Post-emergence action against ZEAMX in % (crop plant compatibility) ([17]; 20 g/ha, ZEAMX, effect in comparison to untreated controls): 0%; Post-emergence action against TRZAS in % ([18]; 20 g/ha): 20%; Pre-emergence action against ZEAMX in % [20]: 0%; Pre-emergence action against ALOMY ([13]; 80 g/ha): 80%; Post-emergence action against POLCO in % [26]: 90% |
| COC(=O)[C@@H](C)NC(=O)COc1nn(-c2ccccn2)c(-c2ccnc(F)c2)c1Br [Example I-59] | 80 | 100 | 100 | 0 | 0 | 90 | 20 | 90 | 100 | 100 | 90 | 90 | 100 | 100 | 90 | 100 | – | 80 | 80 | 90 | Post-emergence action against MATIN in % [27]: 80%; Post-emergence action against AVEFA in % ([16]; 80 g/ha): 80%; Post-emergence action against ABUTH in % ([5]; 80 g/ha): 80%; Pre-emergence action against VIOTR in % ([7]; dosage 80 g/ha): 90%; Pre-emergence action against AMARE in % ([8]; 80 g/ha): 100%; Post-emergence action against LOLRI in % ([28]; dosage 80 g/ha): 80%; Post-emergence action against VIOTR in % ([21]; 80 g/ha): 80%; Pre-emergence action against LOLRI in % ([9]; dosage 80 g/ha): 80%; Pre-emergence action against POLCO in % ([24]; dosage 80 g/ha): 80%; Pre-emergence action against SETVI in % ([12]; dosage 80 g/ha): 90%; Pre-emergence action against ALOMY ([13]; 80 g/ha): 80%; Post-emergence action against POLCO in % [26]: 80% |
| CCOC(=O)COc1nn(-c2ccccn2)c(-c2ccc(F)nc2)c1I [Example I-121] | – | 100 | 100 | 0 | 0 | 80 | 0 | 100 | 100 | 100 | – | 80 | 100 | 100 | 100 | 100 | 80 | 80 | 90 | 100 | Post-emergence action against DIGSA in % ([29]; 80 g/ha): 80%; Pre-emergence action against AMARE in % ([8]; 80 g/ha): 100%; Post-emergence action against VIOTR in % ([21]; 80 g/ha): 80%; Post-emergence action against POLCO in % [26]: 80% |
| C#CCOC(=O)COc1nn(-c2ccccn2)c(-c2ccc(F)nc2)c1Br [Example I-360] | 80 | 90 | 100 | – | 20 | 80 | 10 | 100 | 100 | 100 | – | 90 | 100 | 100 | 90 | 100 | 90 | 80 | 90 | 100 | Post-emergence action against PHBPU in % ([1]; dosage 320 g/ha): 80%; Post-emergence action against DIGSA in % ([29]; 80 g/ha): 80%; Post-emergence action against DIGSA in % ([29]; 320 g/ha): 80%; Post-emergence action against AVEFA in % ([16]; 320 g/ha): 80%; Post-emergence action against VERPE in % ([4]; 320 g/ha, VERPE): 80%; Post-emergence action against ABUTH in % ([5]; 320 g/ha): 80%; Pre-emergence action against AMARE in % ([8]; 80 g/ha): 90%; Post-emergence action against LOLRI in % ([28]; dosage 320 g/ha): 90%; Pre-emergence action against PHBPU in % ([30]; dosage 80 g/ha): 80%; Pre-emergence action against PHBPU in % ([30]; dosage 320 g/ha): 90%; Post-emergence action against ECHCG in % ([22]; dosage 320 g/ha): 80%; Post-emergence action against SETVI in % ([25]; dosage 80 g/ha): 80%; Post-emergence action against SETVI in % ([25]; dosage 320 g/ha): 80%; Post-emergence action against ALOMY in % ([11]; 320 g/ha): 90%; Pre-emergence action against SETVI in % ([12]; dosage 80 g/ha): 90%; Pre-emergence action against ALOMY ([13]; 80 g/ha): 100% |
| O=C(O)COc1nn(-c2ccccn2)c(-c2ccc(F)nc2)c1I [Example I-103] | 80 | – | – | 0 | 0 | 80 | 0 | 90 | 90 | 100 | 80 | – | 90 | 100 | 90 | – | – | – | 80 | – | Post-emergence action against TRZAS in % ([18]; 20 g/ha): 0%; Post-emergence action against ABUTH in % ([5]; 80 g/ha): 80%; Pre-emergence action against ZEAMX in % [20]: 0%; Pre-emergence action against AMARE in % ([8]; 80 g/ha): 80%; Pre-emergence action against PHBPU in % ([30]; dosage 320 g/ha): 80% |
